Laboratory results: ChEMBL document CHEMBL1150480, “Photoreactive CMP-sialic acids as substrates for 2,6-sialyltransferase” (Bioorg Med Chem Lett, 1995)

B1: Beta-galactoside alpha-2,6-sialyltransferase 1 (Rattus norvegicus), P13721 (protein)
chain: MIHTNLKKKFSLFILVFLLFAVICVWKKGSDYEALTLQAKEFQMPKSQEKVAMGSASQVVFSNSKQDPKEDIPILSYHRVTAKVKPQPSFQVWDKDSTYSKLNPRLLKIWRNYLNMNKYKVSYKGPGPGVKFSVEALRCHLRDHVNVSMIEATDFPFNTTEWEGYLPKENFRTKVGPWQRCAVVSSAGSLKNSQLGREIDNHDAVLRFNGAPTDNFQQDVGSKTTIRLMNSQLVTTEKRFLKDSLYTEGILIVWDPSVYHADIPKWYQKPDYNFFETYKSYRRLNPSQPFYILKPQMPWELWDIIQEISADLIQPNPPSSGMLGIIIMMTLCDQVDIYEFLPSKRKTDVCYYHQKFFDSACTMGAYHPLLFEKNMVKHLNEGTDEDIYLFGKATLSGFRNIRC

Tests used:
[1] = Evaluation of ratio of Michaelis-Menten constant to that of kinetic constant against 2,6-sialyltransferase in presence of compound
[2] = biological target: T1, Beta-galactoside alpha-2,6-sialyltransferase 1 (Rattus norvegicus) (UniProt P13721); assay: Evaluation of kinetic constant for rat liver GaI-beta-1,4GIcNAc alpha2,6-sialyltransferase in presence of compound
T1 sequence (whole entry): B1 chain

[3] = compound: CC(=O)NC1C(O)CC(OP(=O)(O)OC[C@H]2OC(n3ccc(N)nc3=O)[C@H](O)[C@@H]2O)(C(=O)O)OC1[C@H](O)[C@H](O)CNC(=O)c1ccc(C(=O)c2ccccc2)cc1; assay: (§1) Evaluation of Michaelis-Menten constant of rat liver GaI-beta-1,4GIcNAc alpha2,6-sialyltransferase in presence of compound
[4] = compound: NCC(=O)NC1C(O)CC(OP(=O)(O)OC[C@H]2OC(n3ccc(N)nc3=O)[C@H](O)[C@@H]2O)(C(=O)O)OC1[C@H](O)C(O)CO; assay: as §1
[5] = compound: CC(=O)NC1C(O)CC(OP(=O)(O)OC[C@H]2OC(n3ccc(N)nc3=O)[C@H](O)[C@@H]2O)(C(=O)O)OC1[C@H](O)[C@H](O)CNC(=O)c1ccc(N=[N+]=[N-])cc1O; assay: as §1
[6] = compound: CC(=O)NC1C(O)CC(OP(=O)(O)OC[C@H]2OC(n3ccc(N)nc3=O)[C@H](O)[C@@H]2O)(C(=O)O)OC1[C@H](O)[C@H](O)CNC(=O)c1ccc(N=[N+]=[N-])cc1; assay: as §1
[7] = compound: [N-]=[N+]=Nc1ccc(C(=O)NCC(=O)NC2C(O)CC(OP(=O)(O)OC[C@H]3OC(n4ccc(N)nc4=O)[C@H](O)[C@@H]3O)(C(=O)O)OC2[C@H](O)[C@H](O)CO)cc1; assay: as §1

Molecule | Ratio [1] | Relative Vmax [2] | Km [3] | Km [4] | Km [5] | Km [6] | Km [7]
CC(=O)NC1C(O)CC(OP(=O)(O)OC[C@H]2OC(n3ccc(N)nc3=O)[C@H](O)[C@@H]2O)(C(=O)O)OC1[C@H](O)[C@H](O)CNC(=O)c1ccc(N=[N+]=[N-])cc1O (stereo not given in full) | 13.8 | 1.1 |  |  |  |  | 
CC(=O)NC1C(O)CC(OP(=O)(O)OC[C@H]2OC(n3ccc(N)nc3=O)[C@H](O)[C@@H]2O)(C(=O)O)OC1[C@H](O)[C@H](O)CNC(=O)c1ccc(C(=O)c2ccccc2)cc1 (stereo not given in full) | 11.8 | 0.8 |  |  |  |  | 
[N-]=[N+]=Nc1ccc(C(=O)NCC(=O)NC2C(O)CC(OP(=O)(O)OC[C@H]3OC(n4ccc(N)nc4=O)[C@H](O)[C@@H]3O)(C(=O)O)OC2[C@H](O)[C@H](O)CO)cc1 (stereo not given in full) | 3.1 | 0.5 |  |  |  |  | 
NCC(=O)NC1C(O)CC(OP(=O)(O)OC[C@H]2OC(n3ccc(N)nc3=O)[C@H](O)[C@@H]2O)(C(=O)O)OC1[C@H](O)C(O)CO (stereo not given in full) | 22.2 | 1 |  |  |  |  | 
CC(=O)NC1C(O)CC(OP(=O)(O)OC[C@H]2OC(n3ccc(N)nc3=O)[C@H](O)[C@@H]2O)(C(=O)O)OC1[C@H](O)[C@H](O)CNC(=O)c1ccc(N=[N+]=[N-])cc1 (stereo not given in full) | 13.6 | 0.9 |  |  |  |  | 
B1 |  |  | 68 µM | 45 µM | 80 µM | 66 µM | 161 µM
